The values that follow come from US20250179047A1, “5-[7-(3,4-DIHYDRO-1H-ISOQUINOLINE-2-CARBONYL)-1,2,3,4 TETRAHYDROISOQUINOLIN-6-YL]-1H-PYRROLE-3-CARBOXAMIDE DERIVATIVES, PHARMACEUTICAL COMPOSITIONS CONTAINING THEM AND THEIR USES AS PRO-APOPTOTIC AGENTS” (LES LABORATOIRES SERVIER, priority 2022, published 2025).

In assay [1] the test system is KMS-12-PE Bcl-2 G101V. Put plainly: In vitro cytotoxicity CellTiter-Glo 48 h, KMS-12-PE Bcl-2 G101V. The assay is classed as cell-based. As to conditions: for Ratio (G101V/WT): C50 KMS-12-PE Bcl-2 G101V over C50 KMS-12-PE Bcl-2 WT; for IC50: Homo sapiens, KMS-12-PE, 48 h, CellTiter-Glo, C50 = concentration needed to reach 50% of the cellular viability. The method in brief:
(§1)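 CTG luminescence read-out; C50 = concentration reaching 50% cellular viability. Cells: KMS-12-PE expressing Bcl-2 WT or G101V (lentiviral, TagRFP-sorted). 11-pt curve, 48 h, 37 °C/5% CO2.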
Background: In ATP-based viability assays light output follows the ATP content of the culture.

Assay [2] deals with BCL2 F104I (Homo sapiens, UniProt P10415, F104I). Kind of assay: TR-FRET competitive binding assay, BCL2 F104I. As to conditions: Ki determined from IC50, read-out: TR_FRET EKI_Bcl2 F104I. In outline:
(§2)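 Competitive TR-FRET displacement of fluorescein-PUMA peptide (2 or 20 nM) from 0.5 nM terbium-labelled N-terminal Halo-fusion BCL2 (1-207, wild type or mutant) or BCLXL (2-196), expressed in E. coli. Buffer 50 mM Hepes pH 7.5, 150 mM NaCl, 5% DMSO; 2 h at 23°C. 520/495 nm ratio fitted over 11 points for IC50, converted to Ki.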
For orientation: TR-FRET usually uses a lanthanide donor and a delayed reading to cut background.

Assay [3] deals with BCL2 D103Y (Homo sapiens, UniProt P10415, D103Y). Kind of assay: TR-FRET competitive binding assay, BCL2 D103Y. As to conditions: Ki determined from IC50, read-out: TR_FRET EKI_Bcl2 D103Y. The method in brief:
as §2

Assay [4] has as its target BCL2 WT (Homo sapiens (Human), UniProt P10415). Put plainly: TR-FRET competitive binding assay, BCL2 WT. As to conditions: Ki determined from IC50, read-out: TR_FRET EKI_Bcl2 WT. The method in brief:
as §2

Assay [5] deals with CYP3A4 (Homo sapiens (Human), UniProt P08684). Put plainly: CYP3A4 inhibition determination in hepatic human microsomes. In kind it is in vitro ADME. As to conditions: LC/MS-MS of specific metabolite. The procedure: The inhibitory potential was determined on CYP3 Å4 enzyme using hepatic human microsomes. A range of concentrations (adapted based on the solubility) of the tested compound were incubated in presence of a substrate having a specific metabolite of CYP3 Å4 enzyme.
Then, the formation of the metabolite was quantified using LC/MS-MS analysis and a curve corresponding to the concentration of the metabolite in function of the concentration of the test compound allowed to the calculation of the IC50 value.

Assay [6] concerns the target BCL2 D111A (Homo sapiens, UniProt P10415, D111A). Kind of assay: TR-FRET competitive binding assay, BCL2 D111A. To be noted: Ki determined from IC50, read-out: TR_FRET EKI_Bcl2 D111A. In outline:
as §2

The subject of assay [7] is KMS-12-PE Bcl-2 WT. Put plainly: In vitro cytotoxicity CellTiter-Glo 48 h, KMS-12-PE Bcl-2 WT. The assay is classed as cell-based. As to conditions: Homo sapiens, KMS-12-PE, C50 = concentration needed to reach 50% of the cellular viability. The method in brief:
as §1

Assay [8] has as its target BCL2 G101V (Homo sapiens, UniProt P10415, G101V). Put plainly: TR-FRET competitive binding assay, BCL2 G101V. To be noted: BCL2 G101V; Ki determined from IC50; read-out: TR_FRET EKI_Bcl2 G101V. The method in brief: as §2
Assay [9] concerns BCL2 G101V. Put plainly: TR-FRET competitive binding assay, BCL2 G101V. Also on record: species or system human. As to conditions: ratio Ki BCL2 G101V / Ki BCL2 WT. In outline:
as §2

In assay [10] the target is BCLXL WT (Homo sapiens (Human), UniProt Q07817). Put plainly: TR-FRET competitive binding assay, BCLXL WT. To be noted: for Ki: BCLXL WT, Ki determined from IC50, read-out: TR_FRET EKI BclxL; for TR_FRET EKI BCLxL/WT selectivty ratio: ratio Ki BCLxL / Ki BCL2 WT. In outline:
as §2

Sequence of BCLXL WT (Q07817 other isoform, or with tags, fused parts or gaps): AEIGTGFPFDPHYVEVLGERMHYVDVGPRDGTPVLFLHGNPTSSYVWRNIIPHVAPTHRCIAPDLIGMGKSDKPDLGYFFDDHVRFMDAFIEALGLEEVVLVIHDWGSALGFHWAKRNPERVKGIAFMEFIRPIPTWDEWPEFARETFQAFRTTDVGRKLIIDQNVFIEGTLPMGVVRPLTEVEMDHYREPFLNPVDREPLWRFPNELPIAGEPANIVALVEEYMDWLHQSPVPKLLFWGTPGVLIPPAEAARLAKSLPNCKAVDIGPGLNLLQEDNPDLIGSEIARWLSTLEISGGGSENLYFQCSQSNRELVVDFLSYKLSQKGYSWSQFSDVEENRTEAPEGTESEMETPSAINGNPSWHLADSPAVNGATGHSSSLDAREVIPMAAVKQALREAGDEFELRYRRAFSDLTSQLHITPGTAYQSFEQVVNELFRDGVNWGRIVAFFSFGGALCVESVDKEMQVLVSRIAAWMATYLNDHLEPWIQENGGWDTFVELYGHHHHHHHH
Sequence of CYP3A4 (P08684 whole entry): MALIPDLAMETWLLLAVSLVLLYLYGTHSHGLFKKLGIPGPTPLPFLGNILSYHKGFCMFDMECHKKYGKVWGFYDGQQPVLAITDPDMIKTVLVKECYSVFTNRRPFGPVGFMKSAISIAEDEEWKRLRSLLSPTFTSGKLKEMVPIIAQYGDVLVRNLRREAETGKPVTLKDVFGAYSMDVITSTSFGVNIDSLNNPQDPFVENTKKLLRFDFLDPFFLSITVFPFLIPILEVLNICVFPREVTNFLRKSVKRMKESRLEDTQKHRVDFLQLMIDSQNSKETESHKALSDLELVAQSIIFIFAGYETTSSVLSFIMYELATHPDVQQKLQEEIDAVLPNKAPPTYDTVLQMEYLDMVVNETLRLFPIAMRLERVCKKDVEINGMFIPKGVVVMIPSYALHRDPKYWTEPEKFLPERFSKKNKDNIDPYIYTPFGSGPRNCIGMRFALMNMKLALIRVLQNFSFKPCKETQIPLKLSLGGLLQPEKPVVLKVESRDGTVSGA

As for `Cc1c(N(C(=O)c2cc(-c3cc4c(cc3C(=O)N3Cc5ccccc5C[C@H]3CN3CCCCC3)CN(C(=O)Cc3ccc(OCCN5CCOCC5)cc3)CC4)n(C)c2C)c2ccc(O)cc2)cc(C#N)n1C` [Example 67, N-(5-cyano-1,2-dimethylpyrrol-3-yl)-N-(4-hydroxyphenyl)-1,2-dimethyl-5-[2-(2-{4-[2-(morpholin-4-yl)ethoxy]phenyl}acetyl)-7-{[(3S)-3-(piperidin-1-ylmethyl)-3,4-dihydro-1H-isoquinolin-2-yl]carbonyl}-3,4-dihydro-1H-isoquinolin-6-yl]pyrrole-3-carboxamide], in assay [1], the “Ratio (G101V/WT)” value is recorded as 5.2. Moreover, the values for the IC50 in assay [1], in assay [5] and in [7] were 0.0562 µM, more than 5000 nM and 0.0113 µM, respectively. The Ki in assay [2] is 0.23 nM; in [3], 0.16 nM; in assay [4] it was 0.04 nM; in assay [6], 0.09 nM; in assay [8] it was 0.2 nM; in assay [10] it was 2.6 nM. Besides, the “TR_FRET EKI G101V/WT selectivty ratio” value in assay [9] was found to be 6.3. Besides, the “TR_FRET EKI BCLxL/WT selectivty ratio” value in [10] stood at 68.4.
On to `Cc1c(N(C(=O)c2cc(-c3cc4c(cc3C(=O)N3Cc5ccccc5C[C@H]3CN(C)C(C)C)CN(C(=O)Cc3ccc(OCCN5CCOCC5)cc3F)CC4)n(C)c2C)c2ccc(O)cc2)cc(C#N)n1C` [Example 91, N-(5-cyano-1,2-dimethyl-1H-pyrrol-3-yl)-5-[2-(2-{2-fluoro-4-[2-(morpholin-4-yl)ethoxy]phenyl}acetyl)-7-[(3S)-3-{[methyl(propan-2-yl)amino]methyl}-1,2,3,4-tetrahydroisoquinoline-2-carbonyl]-1,2,3,4-tetrahydroisoquinolin-6-yl]-N-(4-hydroxyphenyl)-1,2-dimethyl-1H-pyrrole-3-carboxamide], for which the “Ratio (G101V/WT)” value in assay [1] was found to be 5.96. Also, the values for the IC50 in [1], in assay [5] and in assay [7] were 0.0498 µM, 18000 nM and 0.0084 µM, respectively. Moreover, the Ki stood at 0.25 nM in assay [2]; 0.17 nM in assay [3]; 0.04 nM in assay [4]; 0.08 nM in [6]; 0.3 nM in [8]; 2.4 nM in assay [10]. Moreover, the “TR_FRET EKI G101V/WT selectivty ratio” value in assay [9] is 6.8. Besides, the “TR_FRET EKI BCLxL/WT selectivty ratio” value in assay [10] stood at 60.0.
`Cc1c(C(=O)N(c2ccc(O)cc2)c2cc(C#N)n(C(F)F)c2C)cc(-c2cc3c(cc2C(=O)N2Cc4ccccc4C[C@H]2CN2CCCC2)CN(C(=O)Cc2ccc(OCCN4CCOCC4)cc2F)CC3)n1C` [Example 110]: in assay [1], the “Ratio (G101V/WT)” value was found to be 5.02. For the same compound, the IC50 – broadly, the concentration needed to halve the response being measured – in assay [1] was 0.0512 µM; in assay [5] it was more than 5000 nM; in [7] it was 0.0102 µM. Besides, the Ki in assay [2] came to 0.15 nM; in assay [3], 0.11 nM; in [4] it was 0.04 nM; in [6], 0.09 nM; in [8], 0.3 nM; in assay [10], 4.1 nM. Also, the “TR_FRET EKI G101V/WT selectivty ratio” value in assay [9] came to 6.3. In addition, the “TR_FRET EKI BCLxL/WT selectivty ratio” value in assay [10] worked out at 102.5.
